Each structure is given as a SMILES string. Read-outs that look alike come from different tables or passages of the source.

Assay [1] addresses FGFR-4 kinase (Homo sapiens, UniProt P22455). In words: FGFR-4 kinase activity, homogeneous time-resolved fluorescence (HTRF) method. The assay is classed as biochemical. The note with it: ATP 25 μM, FGFR-4 kinase 1 nM, read-out: FGFR4 IC50. As for the experimental part: 1. In vitro determination of the protein activity of compounds: The FGFR-4 kinase activity detection platform was established by the homogeneous time-resolved fluorescence (HTRF) method, and the activity of the compound was determined. 1000 μM compounds were subjected to 3-fold gradient dilution in 100% DMSO 11 times (12 concentrations in total), 4 μL diluent from each concentration was added to 96 μL of reaction buffer (50 mM HEPES, pH 7.4, 5 mM MnCl2, 0.1 mM NaVO3, 0.001% Tween-20, 0.01% BAS, 1 mM DTT) and mixed well, as a 4* compound (final concentration of 0.017 nM-1000 nM) for later use. 2 * FGFR-4 kinase (final concentration of 1 nM) was formulated using reaction buffer and 4*substrate (ATP+TK peptide) (TK peptide, HTRF® KinEASETM-TK, purchased from Cisbio, TK peptide, final concentration of 1 μM, ATP final concentration of 25 μ M) was formulated using reaction buffer. 2.5 μL of 4*compound and then 5 μL of 2 * FGFR-4 kinase were added to a 384-well plate (OptiPlate-384, purchased from PerkinElmer), the mixture was mixed by centrifugation, and 2.5 μL of 4 * substrate mixture was added to start the reaction (total reaction volume of 10 µL). The 384-well plate was placed in an incubator 23° C. and stirred for 60 min before the reaction was stopped by the addition of 5 μL of Eu^3+cryptate-labeled anti-phosphotyrosine antibody (TRF® KinEASE™-TK, purchased from Cisbio) and 5 μL of Streptavidin-XL-665 (HTRF® KinEASE™-TK, purchased from Cisbio). After incubation in the incubator for 1 h, fluorescence values (excitation at 320 nm, detecting emitted light at 665 nm and 620 nm, and a ratio of the two as enzyme activity) were read on Envision (purchased from PerkinElmer). The enzyme activity of each compound was measured at 12 concentrations, and the ICso value of the compound was calculated using GraphPad Prism 5.0 software.
The FGFR-4 kinase activity detection platform was established by homogeneous time-resolved fluorescence (HTRF) method, and the activity of compound was determined. 1000 μM compounds were subjected to 3-fold gradient dilution in 100% DMSO 11 times (12 concentrations in total), 4 μL of diluent from each concentration was added to 96 μL of reaction buffer (50 mM HEPES, pH 7.4, 5 mM MnCl2, 0.1 mM NaVO3, 0.001% Tween-20, 0.01% BAS, 1 mM DTT) and mixed well, as a 4* compound (final concentration of 0.017 nM-1000 nM) for later use. 2 * FGFR-4 kinase (final concentration of 1 nM) was formulated using reaction buffer and 4*substrate (ATP+TK peptide)(TK peptide, HTRF® KinEASE™-TK, purchased from Cisbio, TK peptide, final concentration of 1 μM, ATP final concentration of 25 μM) was formulated using reaction buffer. 2.5 μL of 4 * compound and then 5 μL of 2 * FGFR-4 kinase were added to a 384-well plate (OptiPlate-384, purchased from PerkinElmer), the mixture was mixed by centrifugation, and 2.5 μL of 4 * substrate mixture was added to start the reaction (total reaction volume of 10 μL). The 384-well plate was placed in an incubator 23° C. and stirred for 60 min before the reaction was stopped by the addition of 5 μL of Eu^3+cryptate-labled anti-phosphotyrosine antibody (TRF® KinEASE™-TK, purchased from Cisbio) and 5 μL of Streptavidin-XL-665 (HTRF® KinEASE™-TK, purchased from Cisbio). After incubation in the incubator for 1 h, fluorescence values (excitation at 320 nm, detecting emitted light at 665 nm and 620 nm, and a ratio of the two as enzyme activity) were read on Envision (purchased from PerkinElmer). The enzyme activity of each compopund was measured at 12 concentrations, and the ICso value of the compound was calculated using GraphPad prism 5.0 software.

In assay [2] the test system is Human hepatoma cells Hep3b. Briefly: Cell proliferation inhibition, Cell Titer-Glo. The assay is classed as cell-based. The note with it: 72 h. As for the experimental part:
2. Determination of cell proliferation activity of compounds:
Cell Titer-Glo ® detection reagent from Promega was used to establish the suspension cell proliferation inhibition screening method. Human hepatoma cells Hep3b (Xiehe Cell Research Center) were cultured in 25 cm^2 or 75 cm^2 plastic tissue culture flasks (Corning®) filled with MEM (Gibco®) medium supplemented with 10% fetal bovine serum (Hyclone®) under 37° C., 95% air and 5% CO2, and subcultured 2-3 times a week.
(§1) Hep3b cells were seeded in a 96-well cell culture plate (Corning®) at a density of 3×10^3 cells/well, […], and cultured under 37° C., 95% air, and 5% CO2. After 24 h the test compound was added: 10 mM compounds (dissolved in DMSO) were subjected to 3-fold gradient dilution in DMSO , […] of diluent from each concentration was added to […] of serum-free medium, and finally […] of compound diluted in the medium was added to the plate seeded with cells. The final concentration of DMSO in the cell culture medium was 0.1% and the final concentration of the test compound was 0.3 nM-[…]. The above cells were incubated for 3 days under 37° C.
After 3 days, the cell viability assay was performed by the Cell Titer-Glo (Promega) kit, and finally, the inhibitory concentration 50% of the compound on cell proliferation, i.e. the IC 50 value, was calculated by the GraphPad Prism 5.0 program.
as §1, with “DMSO,” for “DMSO ,”, “finally,” for “finally”, “of” for “of the”
After 3 days, the cell viability assay was performed by the Cell Titer-Glo (Promega) kit, and finally the inhibitory concentration 50% of the compound on cell proliferation, i.e. the IC 50 value, was calculated by the GraphPad Prism 5.0 program.
Background: Cellular ATP, detected with luciferase, serves as a proxy for viable cell number.

The mark [3] stands for this setting: Hep3B, Table 1, 3 days incubation.
Setting [4] is: Hep3B, Table 2, 3 days incubation.

Sequence of FGFR-4 kinase (P22455 22-802): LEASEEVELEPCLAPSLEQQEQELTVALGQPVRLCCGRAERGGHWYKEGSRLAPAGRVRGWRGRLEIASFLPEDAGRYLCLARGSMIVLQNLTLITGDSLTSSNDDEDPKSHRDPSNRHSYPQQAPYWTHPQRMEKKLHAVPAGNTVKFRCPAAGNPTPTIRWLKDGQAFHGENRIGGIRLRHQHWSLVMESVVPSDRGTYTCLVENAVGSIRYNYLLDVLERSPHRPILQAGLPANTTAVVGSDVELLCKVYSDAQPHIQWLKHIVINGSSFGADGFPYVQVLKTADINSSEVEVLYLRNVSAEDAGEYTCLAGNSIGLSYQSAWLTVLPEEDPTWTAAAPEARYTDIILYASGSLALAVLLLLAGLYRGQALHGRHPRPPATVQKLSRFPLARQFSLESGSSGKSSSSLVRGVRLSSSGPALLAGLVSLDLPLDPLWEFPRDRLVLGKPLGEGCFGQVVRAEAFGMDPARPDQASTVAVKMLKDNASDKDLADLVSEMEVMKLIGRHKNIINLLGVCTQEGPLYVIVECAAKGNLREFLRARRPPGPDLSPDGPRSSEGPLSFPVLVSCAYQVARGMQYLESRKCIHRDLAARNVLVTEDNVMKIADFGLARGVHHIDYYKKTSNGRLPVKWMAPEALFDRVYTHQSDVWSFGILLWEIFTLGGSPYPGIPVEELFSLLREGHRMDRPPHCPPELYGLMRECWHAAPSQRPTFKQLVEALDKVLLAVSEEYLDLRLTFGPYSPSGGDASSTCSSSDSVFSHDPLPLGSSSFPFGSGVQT

The IC50 is the concentration needed to halve the response being measured. Turning to `CC#CC(=O)Nc1cc(-c2cc3c(cn2)cc(-c2c(Cl)c(OC)cc(OC)c2Cl)c2nccn23)c(OC)cc1N1CCOCC1` [Example 29, N-(5-(4-(2,6-dichloro-3,5-dimethoxyphenyl)imidazo[1,2-a][1,6]naphthyridin-8-yl)-4-methoxy-2-morpholinophenyl)but-2-ynamide], the values for the IC50 in assay [1] (Table 1) and in assay [2] (setting [3]) were 2.17 nM and 34.4 nM, respectively.

`CC#CC(=O)Nc1cc(-c2cc3c(cn2)cc(-c2c(Cl)c(OC)cc(OC)c2Cl)c2nccn23)c(OC)cc1N1CCS(=O)(=O)CC1` [Example 30, N-(5-(4-(2,6-dichloro-3,5-dimethoxyphenyl)imidazo[1,2-a][1,6]naphthyridin-8-yl)-2-(1,1-dioxidothiomorpholino)-4-methoxyphenyl)but-2-ynamide]: the IC50 in assay [1] (Table 1) amounted to 0.947 nM; in assay [2] (setting [3]), 46.3 nM.

As to `CC#CC(=O)Nc1cc(-c2cc3c(cn2)cc(-c2c(Cl)c(OC)cc(OC)c2Cl)c2nccn23)c(OC)cc1N1CCC(N2CCOCC2)CC1` [Example 31, N-(5-(4-(2,6-dichloro-3,5-dimethoxyphenyl)imidazo[1,2-a][1,6]naphthyridin-8-yl)-4-methoxy-2-(4-morpholinopiperidin-1-yl)phenyl)but-2-ynamide], the IC50 in assay [1] (Table 1) amounted to 3.63 nM; in assay [2] (setting [3]), 81.3 nM.

For the compound `CC#CC(=O)Nc1cc(-c2cc3c(cn2)cc(-c2c(Cl)c(OC)cc(OC)c2Cl)c2nccn23)c(OC)cc1N1CCN(C)C2(CC2)C1` [Example 32, N-(5-(4-(2,6-dichloro-3,5-dimethoxyphenyl)imidazo[1,2-a][1,6]naphthyridin-8-yl)-4-methoxy-2-(4-methyl-4,7-diazaspiro[2.5]octan-7-yl)phenyl)but-2-ynamide], the figures for the half-maximal inhibitory concentration (IC50) in assay [1] (Table 1) and in assay [2] (setting [3]) were 6.1 nM and 76.8 nM, respectively.

With `C=CC(=O)Nc1cc(-c2cc3c(cn2)cc(-c2c(Cl)c(OC)cc(OC)c2Cl)c2nccn23)c(OC)cc1N1CCN(C(C)=O)CC1` [Example 37, N-(2-(4-acetylpiperazin-1-yl)-5-(4-(2,6-dichloro-3,5-dimethoxyphenyl)imidazo[1,2-a][1,6]naphthyridin-8-yl)-4-methoxyphenyl)acrylamide], the IC50 in assay [1] (Table 1) is 2.16 nM; in assay [2] (setting [3]), 107 nM.

Regarding `C=CC(=O)Nc1cc(-c2cc3c(cn2)cc(-c2c(Cl)c(OC)cc(OC)c2Cl)c2nccn23)c(OC)cc1N1CC2CCC(C1)O2` [Example 44, N-(2-(8-oxa-3-azabicyclo[3 .2.1]octan-3-yl)-5-(4-(2,6-dichloro-3,5-dimethoxyphenyl)imidazo[1,2-a][1,6]naphthyridin-8-yl)-4-methoxyphenyl)acrylamide], the IC50 in assay [1] (Table 1) was found to be 5.03 nM; in assay [2] (setting [3]), 113 nM.

On to `C=CC(=O)Nc1cc(-c2cc3c(cn2)cc(-c2c(Cl)c(OC)cc(OC)c2Cl)c2nccn23)c(OC)cc1N1CCOCC1` [Example 54, N-(5-(4-(2,6-dichloro-3,5-dimethoxyphenyl)imidazo[1,2-a][1,6]naphthyridin-8-yl)-4-methoxy-2-morpholinophenyl)acrylamide], for which the IC50 in assay [1] (Table 2) worked out at 0.7 nM; in assay [2] (Table 2, 3 days incubation), 21.5 nM.

As to `C=CC(=O)Nc1cc(-c2cc3c(cn2)cc(-c2c(Cl)c(OC)cc(OC)c2Cl)c2nccn23)c(OC)cc1N1CCN(C#N)CC1` [Example 60, N-(2-(4-cyanopiperazin-1-yl)-5-(4-(2,6-dichloro-3,5-dimethoxyphenyl)imidazo[1,2-a][1,6]naphthyridin-8-yl)-4-methoxyphenyl)acrylamide], the concentration for half-maximal inhibition (IC50) came to 0.9 nM in assay [1] (Table 2) and 95.2 nM in assay [2] (setting [4]).

In the case of `C=CC(=O)Nc1cc(-c2cc3c(cn2)cc(-c2c(Cl)c(OC)cc(OC)c2Cl)c2nccn23)c(OC)cc1N1CCC(N2CCN(C)CC2)CC1` [Example 64, N-(5-(4-(2,6-dichloro-3,5-dimethoxyphenyl)imidazo[1,2-a][1,6]naphthyridin-8-yl)-4-methoxy-2-(4-(4-methylpiperazin-1-yl)piperidin-1-yl)phenyl)acrylamide], the values for the IC50 in assay [1] (Table 2) and in assay [2] (setting [4]) were 0.3 nM and 69.7 nM, respectively.

For the compound `C=CC(=O)Nc1cc(-c2cc3c(cn2)cc(-c2c(Cl)c(OC)cc(OC)c2Cl)c2nccn23)c(OC)cc1N1CCN(C2COC2)CC1` [Example 65, N-(5-(4-(2,6-dichloro-3,5-dimethoxyphenyl)imidazo[1,2-a][1,6]naphthyridin-8-yl)-4-methoxy-2-(4-(oxetan-3-yl)piperazin-1-yl)phenyl)acrylamide], the IC50 in assay [1] (Table 2) was determined as 0.9 nM; in assay [2] (setting [4]), 22.3 nM.

With `C=CC(=O)Nc1cc(-c2cc3c(cn2)cc(-c2c(Cl)c(OC)cc(OC)c2Cl)c2nccn23)c(OC)cc1N1CCC(N(C)C)CC1` [Example 67], the half-maximal inhibitory concentration (IC50) came out at 0.4 nM in assay [1] (Table 2) and 81.3 nM in assay [2] (setting [4]).

The values are drawn from patent US20220185811A1, “FGFR4 KINASE INHIBITOR AND PREPARATION METHOD THEREFOR AND USE THEREOF” (SHOUYAO HOLDINGS (BEIJING) CO., LTD., priority 2019, published 2022).
